# Experiments:
# [1] = biological target: GDP-bound HRAS wild-type protein (Homo sapiens, UniProt P01112); assay: Binding to HRAS by surface plasmon resonance (SPR), Single Cycle Kinetics
# [2] = biological target: GDP-bound NRAS wild-type protein (Homo sapiens, UniProt P01111); assay: Binding to NRAS by surface plasmon resonance (SPR), Single Cycle Kinetics
# [3] = SPR, GDP-bound wild-type proteins
# [4] = KD ratio, GDP-bound HRAS wild-type vs GDP-bound KRAS wild-type, SPR
# [5] = KD ratio, GDP-bound NRAS wild-type vs GDP-bound KRAS wild-type, SPR
# GDP-bound NRAS wild-type protein, sequence (P01111 whole entry): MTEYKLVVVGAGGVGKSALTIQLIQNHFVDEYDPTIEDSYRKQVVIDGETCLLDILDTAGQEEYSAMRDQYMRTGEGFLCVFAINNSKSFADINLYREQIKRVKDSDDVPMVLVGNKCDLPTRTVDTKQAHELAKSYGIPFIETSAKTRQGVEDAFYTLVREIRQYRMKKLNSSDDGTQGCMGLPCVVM
# GDP-bound HRAS wild-type protein, sequence (P01112 whole entry): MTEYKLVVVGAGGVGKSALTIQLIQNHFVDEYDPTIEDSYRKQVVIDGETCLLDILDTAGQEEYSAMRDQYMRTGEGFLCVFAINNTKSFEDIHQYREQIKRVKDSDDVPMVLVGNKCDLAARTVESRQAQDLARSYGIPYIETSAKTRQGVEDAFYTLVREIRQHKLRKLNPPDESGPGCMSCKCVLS
smiles,measurement,setting,value
C#CC[C@H]1C(=O)N[C@@H]([C@@H](C)CC)C(=O)N(C)CC(=O)N(C)[C@H]2C/C=C\CCN(C2=O)[C@@H](Cc2ccc(C)cc2)C(=O)N(C)CC(=O)N[C@@H](CCc2ccc(C(F)(F)F)c(Cl)c2)C(=O)N2CC3(CC3)C[C@H]2C(=O)NC2(CC(C)(C)C2)C(=O)N(C)[C@@H](C2CCCC2)C(=O)N(C)[C@H](C(=O)N(C)C)CC(=O)N1C [PP2982],HRAS/KRAS (ratio of KD value with respect to GDP-bound HRAS wild-type protein to KD value with respect to KRAS),[1]; [3],A (a compound having 10 or more and less than 20 is denoted as A)
same,NRAS/KRAS (ratio of KD value with respect to GDP-bound NRAS wild-type protein to KD value with respect to KRAS),[2]; [3],A (a compound having 10 or more and less than 20 is denoted as A)
CCO[C@@H]1C[C@H]2C(=O)NC3(CCC3)C(=O)N(C)[C@@H](C3CCCC3)C(=O)N(C)[C@H](C(=O)N3CCOCC3)CC(=O)N(C)[C@@H](Cc3ccccc3C#N)C(=O)N[C@@H]([C@@H](C)CC)C(=O)N(C)CC(=O)N(C)[C@H]3CCCCCN(C3=O)[C@@H](Cc3ccc(F)cc3)C(=O)N(C)CC(=O)N[C@@H](CCc3cc(F)c(C(F)(F)F)c(F)c3)C(=O)N2C1 [PP1185],HRAS/KRAS (ratio of KD value with respect to HRAS to KD value with respect to KRAS),[1]; [4],B (a compound having 3 or more and less than 10 is denoted as B)
same,NRAS/KRAS (ratio of KD value with respect to NRAS to KD value with respect to KRAS),[2]; [5],B (a compound having 3 or more and less than 10 is denoted as B)
CCO[C@@H]1C[C@H]2C(=O)NC3(CC(C)(C)C3)C(=O)N(C)[C@@H](C3CCCC3)C(=O)N(C)[C@H](C(=O)N(C)CC)CC(=O)N(C)[C@@H](COC)C(=O)N[C@@H]([C@@H](C)CC)C(=O)N(C)CC(=O)N(C)[C@H]3C/C=C\CCN(C3=O)[C@@H](Cc3ccc(C(F)(F)F)cc3)C(=O)N(C)CC(=O)N[C@@H](CCc3ccc(C(F)(F)F)c(Cl)c3)C(=O)N2C1 [PP2836],HRAS/KRAS (ratio of KD value with respect to GDP-bound HRAS wild-type protein to KD value with respect to KRAS),[1]; class symbols,A (a compound having 10 or more and less than 20 is denoted as A)
same,NRAS/KRAS (ratio of KD value with respect to GDP-bound NRAS wild-type protein to KD value with respect to KRAS),[2]; class symbols,A (a compound having 10 or more and less than 20 is denoted as A)
CC[C@H](C)[C@@H]1NC(=O)[C@H](CC(C)C)N(C)C(=O)C[C@@H](C(=O)N2CCOCC2)N(C)C(=O)[C@H](C2CCCCC2)N(C)C(=O)C2(CCCC2)NC(=O)[C@@H]2CCCN2C(=O)[C@H](CCc2cc(F)c(C(F)(F)F)c(F)c2)NC(=O)CN(C)C(=O)[C@H](Cc2ccc(C(F)(F)F)cc2)N2CCCCC[C@@H](C2=O)N(C)C(=O)CN(C)C1=O [PP0505],HRAS/KRAS (ratio of KD value with respect to GDP-bound HRAS wild-type protein to KD value with respect to KRAS),[1]; SPR,B (a compound having 3 or more and less than 10 is denoted as B)
same,NRAS/KRAS (ratio of KD value with respect to GDP-bound NRAS wild-type protein to KD value with respect to KRAS),[2]; SPR,B (a compound having 3 or more and less than 10 is denoted as B)
CCO[C@@H]1C[C@H]2C(=O)N(C)C3(CCC3)C(=O)N(C)[C@@H](C3CCCC3)C(=O)N(C)[C@H](C(=O)N(C)C)CC(=O)N(C)[C@@H](CC(C)C)C(=O)N[C@@H]([C@@H](C)CC)C(=O)N(C)CC(=O)N(C)[C@H]3C/C=C\CCN(C3=O)[C@@H](Cc3ccc(C)cc3)C(=O)N(C)CC(=O)N[C@@H](CCc3cc(F)c(C(F)(F)F)c(F)c3)C(=O)N2C1 [PP1790],HRAS/KRAS (ratio of KD value for HRAS to KD value for KRAS),[1]; [4],B (a compound having 3 or more and less than 10 is denoted as B)
same,NRAS/KRAS (ratio of KD value for NRAS to KD value for KRAS),[2]; [5],A (a compound having 10 or more and less than 20 is denoted as A)
CCO[C@@H]1C[C@H]2C(=O)NC3(CC(C)(C)C3)C(=O)N(C)[C@@H](C3CCCC3)C(=O)N(C)[C@H](C(=O)N(C)CC)CC(=O)N(C)[C@@H](CC(C)C)C(=O)N[C@@H]([C@@H](C)CC)C(=O)N(C)CC(=O)N(C)[C@H]3C/C=C\CCN(C3=O)[C@@H](Cc3ccc(C(F)F)cc3)C(=O)N(C)CC(=O)N[C@@H](CCc3ccc(Cl)c(Cl)c3)C(=O)N2C1 [PP2827],HRAS/KRAS (ratio of KD value with respect to GDP-bound HRAS wild-type protein to KD value with respect to KRAS),[1]; class symbols,B (a compound having 3 or more and less than 10 is denoted as B)
same,NRAS/KRAS (ratio of KD value with respect to GDP-bound NRAS wild-type protein to KD value with respect to KRAS),[2]; class symbols,A (a compound having 10 or more and less than 20 is denoted as A)
CCC[C@H]1C(=O)N[C@@H]([C@@H](C)CC)C(=O)N(C)CC(=O)N(C)[C@H]2C/C=C\CCN(C2=O)[C@@H](Cc2ccc(C(F)F)cc2)C(=O)N(C)CC(=O)N[C@@H](CCc2ccc(Cl)c(Cl)c2)C(=O)N2C[C@H](OC(C)C)C[C@H]2C(=O)NC2(CC(C)(C)C2)C(=O)N(C)[C@@H](C(CC)CC)C(=O)N(C)[C@H](C(=O)N(C)C)CC(=O)N1C [PP2535],HRAS/KRAS (ratio of KD value with respect to GDP-bound HRAS wild-type protein to KD value with respect to KRAS),[1]; class symbols,A (a compound having 10 or more and less than 20 is denoted as A)
same,NRAS/KRAS (ratio of KD value with respect to GDP-bound NRAS wild-type protein to KD value with respect to KRAS),[2]; class symbols,AA (a compound having 20 or more is denoted as AA)

# From US20250230193A1, “CYCLIC COMPOUND HAVING SELECTIVE KRAS INHIBITORY EFFECT ON HRAS AND NRAS” (CHUGAI SEIYAKU KABUSHIKI KAISHA, priority 2022, published 2025)
